Measured values: patent US12421210B2, “Fused bicyclic heterocycles as therapeutic agents” (NEW YORK UNIVERSITY, priority 2018, dated 2025)

What follows are compounds tested against human NAMPT enzyme (His-hNAMPT) (Homo sapiens (Human), UniProt P43490) (assay: NAMPT enzymatic inhibition assay (fluorescence, NADH product)). Conditions: [BPS]; read-out: NAMPT IC50 (μM) [BPS].
Sequence of human NAMPT enzyme (His-hNAMPT) (P43490 whole entry): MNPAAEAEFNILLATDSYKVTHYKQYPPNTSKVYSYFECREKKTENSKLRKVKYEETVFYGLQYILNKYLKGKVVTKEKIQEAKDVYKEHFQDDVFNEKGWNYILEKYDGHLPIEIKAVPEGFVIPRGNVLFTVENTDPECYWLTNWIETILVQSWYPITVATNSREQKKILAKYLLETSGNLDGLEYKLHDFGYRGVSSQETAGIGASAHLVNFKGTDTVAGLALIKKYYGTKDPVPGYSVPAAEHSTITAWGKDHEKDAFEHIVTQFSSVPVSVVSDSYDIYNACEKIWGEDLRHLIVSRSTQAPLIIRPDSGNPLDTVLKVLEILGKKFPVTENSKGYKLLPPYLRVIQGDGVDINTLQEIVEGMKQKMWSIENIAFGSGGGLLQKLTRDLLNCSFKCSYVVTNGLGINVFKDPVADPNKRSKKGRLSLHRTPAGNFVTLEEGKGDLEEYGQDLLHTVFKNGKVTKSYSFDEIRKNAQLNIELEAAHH
Type: biochemical
Experimental: The compounds were then diluted 20 fold in an intermediate dilution to 5% DMSO and water. Finally 10 μL of each compound was added to the assay plate, in duplicate, with highest concentration at 30 μM and the lowest at 0.001 μM in a final volume of 50 μL and 1% DMSO concentration. Each assay also tested, in parallel, two reference compounds, FK866 and GMX1778, with highest concentration at 10 μM and lowest at 0.0003 μM. 200 ng of human NAMPT enzyme (His-hNAMPT obtained from E. coli expression system) diluted in […] (tris-buffered saline-Polysorbate 20) 1× was added to each well in a volume of 10 μL and the compounds were incubated with the enzyme at room temperature for 20 minutes. After the incubation, 30 μL of master mixture were added to each well. The master mixture contained: 50 mM Tris-HCl, pH 8.0, 12.5 mM MgCl2, 20 μM nicotinamide, 40 μM phosphoribosyl pyrophosphate (PRPP), 20 μM adenosine triphosphate (ATP), 30 μg/mL of alcohol dehydrogenase, 10 μg/mL of NMNAT, 1.5% alcohol, 1 mM dithiothreitol (DTT), 0.02% bovine serum albumin (BSA), 0.01% Tween 20. The reaction was performed at 30° C. for 60 minutes. Fluorescence intensity was measured at an excitation of 340 nm and an emission of 460 nm using a Tecan Infinite M1000 microplate reader. The fluorescence values indicated increase of NADH product.
Enzyme activity assay was performed in duplicate at each concentration. The fluorescence data was analyzed and compared. In the absence of the compound, the intensity (Ce) in each data set was defined as 100% activity. In the absence of enzyme, the intensity (C0) in each data set was defined as 0% activity. The percent activity in the presence of each compound was calculated according to the following equation: % activity=(C−C0)/(Ce−C0), where C is the fluorescence in the presence of the compound.
The % activity vs. compound concentrations were then plotted using non-linear regression analysis of Sigmoidal dose-response curve generated with the equation Y=B+(T−B)/1+10^((Log EC50-X)×Hill Slope), where Y is percent activity, B is minimum percent activity, T is maximum percent activity, X is logarithm of compound and Hill Slope=slope factor or Hill coefficient.
`CC1(OC(=O)N2C[C@@H]3[C@@H](CCNC(=O)c4cnc5nccn5c4)[C@@H]3C2)COC1` [Example 43, (1R,5S,6s)-3-methyloxetan-3-yl 6-(2-(imidazo[1,2-a]pyrimidine-6-carboxamido)ethyl)-3-azabicyclo[3.1.0]hexane-3-carboxylate] was tested, and the IC50 was 0.01 to 0.49 µM. Compound `CC1(OC(=O)N2C[C@@H]3[C@@H](CNC(=O)/C=C/c4cccnc4)[C@@H]3C2)COC1` [Example 238, (1R,5S,6s)-3-methyloxetan-3-yl 6-(((E)-3-(pyridin-3-yl)acrylamido)methyl)-3-azabicyclo[3.1.0]hexane-3-carboxylate] has an IC50 of 1 to 29 µM. `N#CN=C(NCC[C@@H]1[C@H]2CN(C(=O)c3ccccc3)C[C@@H]12)Nc1ccncc1` [Example 228, (E)-1-(2-((1R,5S,6s)-3-benzoyl-3-azabicyclo[3.1.0]hexan-6-yl)ethyl)-2-cyano-3-(pyridin-4-yl)guanidine] showed an IC50 of 0.01 to 0.49 µM. Work on `CC1(OC(=O)N2C[C@@H]3[C@@H](CCNC(=O)c4cc5cnccc5[nH]4)[C@@H]3C2)COC1` [Example 36, (1R,5S,6s)-3-methyloxetan-3-yl 6-(2-(1H-pyrrolo[3,2-c]pyridine-2-carboxamido)ethyl)-3-azabicyclo[3.1.0]hexane-3-carboxylate] yielded an IC50 of 0.01 to 0.49 µM. `Nc1ccc(/C=C/C(=O)NCC[C@@H]2[C@H]3CN(c4ccccc4)C[C@@H]23)cn1` [Example 192, (E)-3-(6-aminopyridin-3-yl)-N-(2-((1R,5S,6s)-3-phenyl-3-azabicyclo[3.1.0]hexan-6-yl)ethyl)acrylamide] showed an IC50 of 0.01 to 0.49 µM. With `CC(C)(C)OC(=O)N1C[C@H]2CC(CNC(=O)NCc3cccnc3)C[C@H]2C1` (some centres unmarked) [Example 268, tert-butyl 5-((3-(pyridin-3-ylmethyl)ureido)methyl)hexahydrocyclopenta[c]pyrrole-2(1H)-carboxylate] the IC50 was 0.5 to 0.99 µM. `O=C(NCC[C@@H]1[C@H]2CN(C(=O)c3ccccc3)C[C@@H]12)c1cc2ccncc2o1` [Example 30, N-(2-((1R,5S,6s)-3-benzoyl-3-azabicyclo[3.1.0]hexan-6-yl)ethyl)furo[2,3-c]pyridine-2-carboxamide] was tested, and the IC50 was 0.01 to 0.49 µM. `Nc1ccc(/C=C/C(=O)NCC[C@@H]2[C@H]3CN(Cc4ccccc4)C(=O)[C@@H]23)cn1` (racemic) [Example 258, (E)-3-(6-aminopyridin-3-yl)-N-(2-((1R,5S,6S)-3-benzyl-2-oxo-3-azabicyclo[3.1.0]hexan-6-yl)ethyl)acrylamide and (E)-3-(6-aminopyridin-3-yl)-N-(2-((1S,5R,6R)-3-benzyl-2-oxo-3-azabicyclo[3.1.0]hexan-6-yl)ethyl)acrylamide] showed an IC50 of 0.01 to 0.49 µM.

Same assay, conditions: [HDB]; read-out: NAMPT IC50 (μM) [HDB]
Compound `O=C(/C=C/c1cccnc1)NCC[C@@H]1[C@H]2CN(C(c3ccccc3)C3CCOCC3)C[C@@H]12` (stereo partly drawn) [Example 335, (E)-N-(2-((1R,5S,6s)-3-(phenyl(tetrahydro-2H-pyran-4-yl)methyl)-3-azabicyclo[3.1.0]hexan-6-yl)ethyl)-3-(pyridin-3-yl)acrylamide] has an IC50 of 0.01 to 0.49 µM. For `Cc1noc2ncc(/C=C/C(=O)NCC[C@@H]3[C@H]4CN(C(=O)OC(C)(C)C)C[C@@H]34)cc12` [Example 9, tert-butyl (1R,5S,6s)-6-(2-((E)-3-(3-methylisoxazolo[5,4-b]pyridin-5-yl)acrylamido)ethyl)-3-azabicyclo[3.1.0]hexane-3-carboxylate], the IC50 was 0.01 to 0.49 µM. Work on `O=C(/C=C/c1cccnc1)NCC[C@@H]1[C@H]2CN(c3ccc(F)cc3)C[C@@H]12` [Example 195, (E)-N-(2-((1R,5S,6s)-3-(4-fluorophenyl)-3-azabicyclo[3.1.0]hexan-6-yl)ethyl)-3-(pyridin-3-yl)acrylamide] yielded an IC50 of 0.01 to 0.49 µM. `NC(=O)c1ccc(N2C[C@@H]3[C@@H](CCNC(=O)/C=C/c4cccnc4)[C@@H]3C2)cc1` [Example 186, 4-((1R,5S,6s)-6-(2-((E)-3-(pyridin-3-yl)acrylamido)ethyl)-3-azabicyclo[3.1.0]hexan-3-yl)benzamide] was tested, and the IC50 was 0.01 to 0.49 µM. With `Nc1ccc(/C=C/C(=O)NCC[C@@]2(F)[C@@H]3CN(c4ncccn4)C[C@@H]32)cn1` [Example 290, (E)-3-(6-aminopyridin-3-yl)-N-(2-((1R,5S,6r)-6-fluoro-3-(pyrimidin-2-yl)-3-azabicyclo[3.1.0]hexan-6-yl)ethyl)acrylamide] the IC50 was 0.01 to 0.49 µM. `O=C(NCC[C@@H]1[C@H]2CN(c3ncccn3)C[C@@H]12)c1cc2cnccc2[nH]1` [Example 194, N-(2-((1R,5S,6s)-3-(pyrimidin-2-yl)-3-azabicyclo[3.1.0]hexan-6-yl)ethyl)-1H-pyrrolo[3,2-c]pyridine-2-carboxamide] was tested, and the IC50 was 0.01 to 0.49 µM. In the case of `O=C(/C=C/c1cccnc1)NCC[C@H]1[C@H]2CN(Cc3ccccc3)C[C@@H]12` [Example 280, (E)-N-(2-((1R,5S,6r)-3-benzyl-3-azabicyclo[3.1.0]hexan-6-yl)ethyl)-3-(pyridin-3-yl)acrylamide], the IC50 is reported as 0.01 to 0.49 µM. `O=C(/C=C/c1cccnc1)NCC[C@@H]1[C@H]2CN(c3ccc(F)cc3)C(=O)[C@@H]12` (mixture of isomers) [Example 264, (E)-N-(2-((1R,5S,6S)-3-(4-fluorophenyl)-2-oxo-3-azabicyclo[3.1.0]hexan-6-yl)ethyl)-3-(pyridin-3-yl)acrylamide and (E)-N-(2-((1S,5R,6R)-3-(4-fluorophenyl)-2-oxo-3-azabicyclo[3.1.0]hexan-6-yl)ethyl)-3-(pyridin-3-yl)acrylamide] was tested, and the IC50 was 0.01 to 0.49 µM. `O=C(NCC[C@@H]1[C@H]2CN(c3nc(Cl)ncc3F)C[C@@H]12)c1ccc2ncnn2c1` [Example 217, N-(2-((1R,5S,6s)-3-(2-chloro-5-fluoropyrimidin-4-yl)-3-azabicyclo[3.1.0]hexan-6-yl)ethyl)-[1,2,4]triazolo[1,5-a]pyridine-6-carboxamide] was tested, and the IC50 was 0.01 to 0.49 µM. Compound `O=C(NCC[C@@H]1[C@H]2CN(C(=O)c3ccccc3)C[C@@H]12)c1cc2ccncc2o1` [Example 30, N-(2-((1R,5S,6s)-3-benzoyl-3-azabicyclo[3.1.0]hexan-6-yl)ethyl)furo[2,3-c]pyridine-2-carboxamide] has an IC50 of 0.01 to 0.49 µM. `O=C(/C=C/c1cccnc1)NCC[C@@H]1[C@H]2CN(c3ncc(Cl)cn3)C[C@@H]12` [Example 164, (E)-N-(2-((1R,5S,6s)-3-(5-chloropyrimidin-2-yl)-3-azabicyclo[3.1.0]hexan-6-yl)ethyl)-3-(pyridin-3-yl)acrylamide] was tested, and the IC50 was 0.01 to 0.49 µM. `O=C(/C=C/c1cccnc1)NCC[C@@H]1[C@H]2CN(c3ccccc3C(F)(F)F)C[C@@H]12` [Example 140, (E)-3-(pyridin-3-yl)-N-(2-((1R,5S,6S)-3-(2-(trifluoromethyl)phenyl)-3-azabicyclo[3.1.0]hexan-6-yl)ethyl)acrylamide] showed an IC50 of 0.01 to 0.49 µM. `NC(=O)c1ccnc(N2C[C@@H]3[C@@H](CCNC(=O)/C=C/c4cccnc4)[C@@H]3C2)n1` [Example 171, 2-((1R,5S,6s)-6-(2-((E)-3-(pyridin-3-yl)acrylamido)ethyl)-3-azabicyclo[3.1.0]hexan-3-yl)pyrimidine-4-carboxamide] showed an IC50 of less than 0.01 µM. Compound `O=C(/C=C/c1cccnc1)NCC[C@@H]1[C@H]2CN(Cc3cncnc3)C[C@@H]12` [Example 298, (E)-3-(pyridin-3-yl)-N-(2-((1R,5S,6s)-3-(pyrimidin-5-ylmethyl)-3-azabicyclo[3.1.0]hexan-6-yl)ethyl)acrylamide] has an IC50 of less than 0.01 µM. For `O=C(/C=C/c1cccnc1)NCC[C@@H]1[C@H]2CN(c3cccc4[nH]ncc34)C[C@@H]12` [Example 337, (E)-N-(2-((1R,5S,6s)-3-(1H-indazol-4-yl)-3-azabicyclo[3.1.0]hexan-6-yl)ethyl)-3-(pyridin-3-yl)acrylamide], the IC50 was 0.01 to 0.49 µM.
